Source: ChEMBL document CHEMBL5244278, “Bioisosteres of the Phenyl Ring: Recent Strategic Applications in Lead Optimization and Drug Design” (J Med Chem, 2021)
Converted amounts (≈) assume the structure as drawn.

What was measured:
physchem = settings: buffer, pH 7.4
[1] = biological target: Tyrosine-protein kinase ABL1 (Homo sapiens, UniProt P00519); assay: Inhibition of ABL1 (unknown origin)
[2] = Solubility of the compound; assay type: physicochemical
[3] = Inhibition of LFA-1/ICAM-1 (unknown origin) interaction; set-up: species or system Homo sapiens
[4] = Dissociation constant, pKa of the compound; assay type: physicochemical
[5] = Lipophilicity, logD of the compound at pH 7.4; assay type: physicochemical; settings: buffer
[6] = Metabolic stability in human liver microsomes assessed as parent compound remaining; assay type: ADME, Microsome
Hepatitis C virus = assay: microbe, parasite or virus in culture; settings: GT1b-genotype
[7] = Solubility of compound at pH 6.8 by RapidFire mass spectrometry; assay type: physicochemical; settings: buffer
[8] = Solubility of the compound in FaSSIF at pH 6.8 by RapidFire mass spectrometry; assay type: ADME; settings: simulated gi fluid
[9] = Clearance in rat liver microsomes; assay type: ADME, Microsome
[10] = Inhibition of MAPK (unknown origin); set-up: species or system Homo sapiens

Chain of Tyrosine-protein kinase ABL1 (P00519 whole entry): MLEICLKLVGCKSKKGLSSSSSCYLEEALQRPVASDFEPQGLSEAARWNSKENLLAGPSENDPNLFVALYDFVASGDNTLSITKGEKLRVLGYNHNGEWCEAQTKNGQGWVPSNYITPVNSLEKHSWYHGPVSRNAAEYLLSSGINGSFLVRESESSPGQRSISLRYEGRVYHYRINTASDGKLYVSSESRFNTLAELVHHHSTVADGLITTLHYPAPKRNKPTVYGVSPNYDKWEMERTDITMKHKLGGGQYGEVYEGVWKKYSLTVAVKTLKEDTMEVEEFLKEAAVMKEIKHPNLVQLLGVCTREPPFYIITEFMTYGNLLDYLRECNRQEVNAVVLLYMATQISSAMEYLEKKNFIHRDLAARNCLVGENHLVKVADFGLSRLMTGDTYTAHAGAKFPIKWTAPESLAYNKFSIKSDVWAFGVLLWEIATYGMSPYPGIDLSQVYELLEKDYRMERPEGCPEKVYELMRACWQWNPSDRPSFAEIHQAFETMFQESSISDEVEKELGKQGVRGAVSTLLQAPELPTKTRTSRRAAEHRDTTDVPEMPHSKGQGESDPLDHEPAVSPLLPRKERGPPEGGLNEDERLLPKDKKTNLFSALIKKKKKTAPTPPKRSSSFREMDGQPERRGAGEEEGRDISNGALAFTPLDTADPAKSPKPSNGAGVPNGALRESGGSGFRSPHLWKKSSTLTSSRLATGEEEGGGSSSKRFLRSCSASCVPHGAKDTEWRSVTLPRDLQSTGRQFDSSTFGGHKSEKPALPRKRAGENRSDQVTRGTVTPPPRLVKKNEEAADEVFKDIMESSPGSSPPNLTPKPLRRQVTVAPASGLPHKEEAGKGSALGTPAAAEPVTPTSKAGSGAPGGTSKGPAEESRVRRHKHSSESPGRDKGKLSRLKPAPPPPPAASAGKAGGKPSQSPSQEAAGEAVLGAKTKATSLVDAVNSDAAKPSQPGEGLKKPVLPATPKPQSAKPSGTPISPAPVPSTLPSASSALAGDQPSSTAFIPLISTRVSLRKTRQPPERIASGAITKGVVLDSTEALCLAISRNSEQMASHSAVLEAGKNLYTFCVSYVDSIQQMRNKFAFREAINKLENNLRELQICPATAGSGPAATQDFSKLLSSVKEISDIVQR

`Cc1ccc(NC(=O)CCCCN2CCN(C)CC2)cc1Nc1nccc(-c2cccnc2)n1` gave a solubility (physchem) of 356 µM and an IC50 [1] greater than 1000 nM.

With `CC(=O)Nc1nc2c(Oc3cc(N4CCN(CC(F)(F)F)CC4)ncn3)cccc2s1` the solubility [2] was greater than 200 µg/mL.

`CC(=O)N1CCN(c2cc(-c3ccc(Sc4ccccc4C(C)C)c(C(F)(F)F)c3)ncn2)CC1` showed an IC50 [3] of 220 nM.

Work on `NC12CCC(CC1)CC2` yielded a pKa [4] of 11.

For `CC(=O)N1CCN(c2nc(-c3ccc(Sc4ccccc4C(C)C)c(C(F)(F)F)c3)cs2)CC1`, the IC50 [3] was 3000 nM.

For `O=C(c1ccccc1-c1ccccc1)N1CCCCC1`, the solubility (physchem) was 397 µM and the logD [5] was 3.5.

Compound `Cc1ccc(NC(=O)[C@H]2C[C@H](CN3CCN(C)CC3)C2)cc1Nc1nccc(-c2cccnc2)n1` has a solubility (physchem) of 2000 µM and an IC50 [1] greater than 1000 nM.

Work on `CN1CCN(c2ccc(Nc3cc(C4CC4)[nH]n3)nn2)CC1` yielded a Stability [6] of 81%.

For `CC(=O)N1CCN(c2cc(-c3ccc(Sc4ccccc4C(C)C)c(C(F)(F)F)c3)ccn2)CC1`, the IC50 [3] was 93 nM.

With `CC(=O)N1CCN(C(=O)/C=C/c2ccc(Sc3ccccc3C(C)C)c(C(F)(F)F)c2)CC1` the IC50 [3] was 60 nM.

`COC(=O)N[C@@H](C(=O)N1CCC[C@@H]1c1ncc(-c2ccc(-n3ccc4c(-c5cnc([C@H]6CCCN6C(=O)[C@H](NC(=O)OC)C(C)C)[nH]5)csc43)c(Cl)c2)[nH]1)C(C)C` gave an EC50 (Hepatitis C virus) of less than 1 nM.

Work on `COC(=O)N[C@@H](C(=O)N1CCC[C@@H]1c1ncc(-c2ccc(-c3cc4oc(-c5cnc([C@H]6CCCN6C(=O)[C@H](NC(=O)OC)C(C)C)[nH]5)cc4s3)cc2)[nH]1)C(C)C` yielded an EC50 (Hepatitis C virus) of less than 1 nM.

For `Cc1ccc(NC(=O)[C@H]2CC[C@H](CN3CCN(C)CC3)CC2)cc1Nc1nccc(-c2cccnc2)n1`, the solubility (physchem) was 56 µM and the IC50 [1] was greater than 1000 nM.

Work on `Cc1ccc(NC(=O)C23CC(CN4CCN(C)CC4)(C2)C3)cc1Nc1nccc(-c2cccnc2)n1` yielded a solubility (physchem) of 2680 µM and an IC50 [1] greater than 1000 nM.

`O=C(C1[C@@H]2CC[C@@]1(c1ccccc1)C2)N1CCCCC1` (some centres not stated) showed a solubility (physchem) of 492 µM and a logD [5] of 3.7.

With `Cc1ccc(NC(=O)[C@@H]2CC[C@H](CN3CCN(C)CC3)C2)cc1Nc1nccc(-c2cccnc2)n1` the solubility (physchem) was 885 µM and the IC50 [1] was greater than 1000 nM.

Work on `N#Cc1ccc(Br)cc1` yielded a solubility (physchem) of 194 µg/mL.

For `COC(=O)N[C@@H](C(=O)N1CCC[C@@H]1c1ncc(-c2cn3cc(-c4cnc([C@H]5CCCN5C(=O)[C@H](NC(=O)OC)C(C)C)[nH]4)sc3n2)[nH]1)C(C)C`, the EC50 (Hepatitis C virus) was less than 1 nM.

`NC12CCC(CC1)C2` gave a pKa [4] of 11.

`Cc1ccc(NC(=O)CCCCCN2CCN(C)CC2)cc1Nc1nccc(-c2cccnc2)n1` gave an IC50 [1] greater than 1000 nM.

In the case of `NC12CC(C1)C2`, the pKa [4] is reported as 11.

`CC(C)(C)c1cccc(C(=O)O)c1` showed a solubility (physchem) of 8080 µg/mL.

With `N#Cc1ccccc1Br` the solubility (physchem) was 412 µg/mL.

With `N#Cc1cccc(Br)c1` the solubility (physchem) was 637 µg/mL.

`COc1ccccc1N1CCN(CCCCNC(=O)c2ccc(B3C=CC=CN3)cc2)CC1` showed a solubility [7] of 0.046 µM (≈ 0.0204 µg/mL), a solubility [8] of 0.22 µM (≈ 0.0978 µg/mL) and a CLhep predicted [9] of 53 mL/min/kg.

`CC(=O)Nc1nc2c(Oc3cc(N4CCN([C@H](C)c5ccc(F)cc5)CC4)ncn3)cccc2s1` gave a solubility [2] greater than 200 µg/mL.

Work on `CN1CCN(c2ccc(Nc3cc(C4CC4)[nH]n3)nc2)CC1` yielded a Stability [6] of 73%.

With `CN1CCN(c2ccc(Nc3cc(C4CC4)[nH]n3)cc2)CC1` the Stability [6] was 92%.

Compound `CC(C)c1ccccc1Sc1ccc(C2CC2C(=O)NCCCN2CCCC2=O)c(Cl)c1Cl` (racemic) has an IC50 [3] of 7 nM.

With `COCCn1c(SC)nc(-c2ccc(F)cc2)c1-c1cccc(NC(=O)CCc2ccc(OC)cc2)c1` the solubility (physchem) was 0.0473 µg/mL and the IC50 [10] was 48 nM.

Compound `Cc1ccc(NC(=O)[C@H]2C[C@@H](CN3CCN(C)CC3)C2)cc1Nc1nccc(-c2cccnc2)n1` has an IC50 [1] greater than 1000 nM.

Compound `CC(=O)N1CCN(c2nc(-c3ccc(Sc4ccccc4C(C)C)c(C(F)(F)F)c3)co2)CC1` has an IC50 [3] of 2500 nM.

`CC(=O)c1ccccc1C(C)(C)C` gave a solubility (physchem) of 12100 µg/mL.

`Cc1ccc(NC(=O)[C@@H]2C[C@H]2CN2CCN(C)CC2)cc1Nc1nccc(-c2cccnc2)n1` gave a solubility (physchem) of 3720 µM and an IC50 [1] greater than 1000 nM.

For `Cc1ccc(NC(=O)[C@H]2C[C@@H]2CN2CCN(C)CC2)cc1Nc1nccc(-c2cccnc2)n1`, the IC50 [1] was greater than 1000 nM.

For `O=C(/C=C/c1ccc(Sc2ccc(Cl)cc2Cl)c(Br)c1)NCCCN1CCCC1=O`, the IC50 [3] was 650 nM.
